Usually IC50 stands for the point on the concentration scale where inhibition reaches its midpoint. High values mean weaker potency in that assay, low ones greater potency in that assay.

Where only a bound is given, the exact number is not on record here.

Sequence of Human indoleamine 2,3-dioxygenase (IDO) (P14902 whole entry): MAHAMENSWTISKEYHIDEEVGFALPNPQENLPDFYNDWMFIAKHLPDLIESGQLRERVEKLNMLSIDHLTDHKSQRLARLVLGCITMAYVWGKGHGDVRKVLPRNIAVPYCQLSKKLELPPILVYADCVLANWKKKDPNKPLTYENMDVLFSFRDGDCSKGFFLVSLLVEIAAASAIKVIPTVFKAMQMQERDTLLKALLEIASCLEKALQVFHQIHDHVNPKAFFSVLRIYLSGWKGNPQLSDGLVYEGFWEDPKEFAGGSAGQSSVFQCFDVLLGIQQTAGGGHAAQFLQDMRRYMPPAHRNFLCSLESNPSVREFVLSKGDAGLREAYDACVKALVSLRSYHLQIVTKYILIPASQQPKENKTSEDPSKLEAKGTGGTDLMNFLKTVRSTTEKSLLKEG

One test addresses Human indoleamine 2,3-dioxygenase (IDO) (Homo sapiens (Human), UniProt P14902). The experiment in a line: Human Indoleamine 2,3-Dioxygenase (IDO) Enzyme Assay. Particulars: Table 2; assay of Example A; 95 nM IDO, 2 mM D-Trp, pH 6.5, room temperature. It is filed as biochemical. From the text: Human indoleamine 2,3-dioxygenase (IDO) with an N-terminal His tag was expressed in E. coli and purified to homogeneity. IDO catalyzes the oxidative cleavage of the pyrrole ring of the indole nucleus of tryptophan to yield N′-formylkynurenine.
For `NS(=O)(=O)NCCNc1nonc1C(=NO)Nc1ccc(F)c(Cl)c1` [Example 5, 4-({2-[(Aminosulfonyl)amino]ethyl}amino)-N-(3-chloro-4-fluorophenyl)-N′-hydroxy-1,2,5-oxadiazole-3-carboximidamide], the IC50 is under 0.2 µM.
On the same count and under the same terms, to `NS(=O)(=O)NCCCNc1nonc1C(=NO)Nc1ccc(F)c(Cl)c1` [Example 7, 4-({3-[(Aminosulfonyl)amino]propyl}amino)-N-(3-chloro-4-fluorophenyl)-N′-hydroxy-1,2,5-oxadiazole-3-carboximidamide] belongs under 0.2 µM; to `CS(=O)(=O)NCCCNc1nonc1C(=NO)Nc1ccc(F)c(Br)c1` [Example 4, N-(3-Bromo-4-fluorophenyl)-N′-hydroxy-4-({3-[(methylsulfonyl)amino]propyl}amino)-1,2,5-oxadiazole-3-carboximidamide], under 0.1 µM.
Molecule `CS(=O)(=O)NCCNc1nonc1C(=NO)Nc1ccc(F)c(C(F)(F)F)c1` [Example 10, N-[4-Fluoro-3-(trifluoromethyl)phenyl]-N′-hydroxy-4-({2-[(methylsulfonyl)amino]ethyl}amino)-1,2,5-oxadiazole-3-carboximidamide] displayed a concentration for half-maximal inhibition (IC50) of under 0.1 µM.
Same read-out and setting: the same measure for `NS(=O)(=O)NCCCNc1nonc1C(=NO)Nc1ccc(F)c(C(F)(F)F)c1` [Example 11, 4-({3-[(Aminosulfonyl)amino]propyl}amino)-N-[4-fluoro-3-(trifluoromethyl)phenyl]-N′-hydroxy-1,2,5-oxadiazole-3-carboximidamide]: under 0.1 µM; for `CS(=O)(=O)NCCCNc1nonc1C(=NO)Nc1cccc(C(F)(F)F)c1` [Example 16, N′-Hydroxy-4-({3-[(methylsulfonyl)amino]propyl}amino)-N-[3-(trifluoromethyl)phenyl]-1,2,5-oxadiazole-3-carboximidamide]: under 0.2 µM.
On the same count and under the same terms, to `N#Cc1cc(NC(=NO)c2nonc2NCCNS(N)(=O)=O)ccc1F` [Example 18, 4-({2-[(Aminosulfonyl)amino]ethyl}amino)-N-(3-cyano-4-fluorophenyl)-N′-hydroxy-1,2,5-oxadiazole-3-carboximidamide] belongs under 0.75 µM.
`NS(=O)(=O)NCCNc1nonc1C(=NO)Nc1cccc(C(F)(F)F)c1` [Example 13, 4-({2-[(Aminosulfonyl)amino]ethyl}amino)-N′-hydroxy-N-[3-(trifluoromethyl)phenyl]-1,2,5-oxadiazole-3-carboximidamide] returned a half-inhibitory concentration (IC50) of under 0.5 µM.
Same read-out and setting: to `CS(=O)(=O)NCCNc1nonc1C(=NO)Nc1cccc(C(F)(F)F)c1` [Example 14, N′-Hydroxy-4-({2-[(methylsulfonyl)amino]ethyl}amino)-N-[3-(trifluoromethyl)phenyl]-1,2,5-oxadiazole-3-carboximidamide] belongs under 0.2 µM; to `NS(=O)(=O)NCCCNc1nonc1C(=NO)Nc1cccc(C(F)(F)F)c1` [Example 15, 4-({3-[(Aminosulfonyl)amino]propyl}amino)-N′-hydroxy-N-[3-(trifluoromethyl)phenyl]-1,2,5-oxadiazole-3-carboximidamide], under 0.2 µM.
On the same count and under the same terms, to `CS(=O)(=O)NCCCNc1nonc1C(=NO)Nc1ccc(F)c(Cl)c1` [Example 8, N-(3-Chloro-4-fluorophenyl)-N′-hydroxy-4-({3-[(methylsulfonyl)amino]propyl}amino)-1,2,5-oxadiazole-3-carboximidamide] belongs under 0.2 µM; to `NS(=O)(=O)NCCNc1nonc1C(=NO)Nc1ccc(F)c(C(F)(F)F)c1` [Example 9, 4-({2-[(Aminosulfonyl)amino]ethyl}amino)-N-[4-fluoro-3-(trifluoromethyl)phenyl]-N′-hydroxy-1,2,5-oxadiazole-3-carboximidamide], under 0.1 µM.
On the same count and under the same terms, to `Cc1cc(NC(=NO)c2nonc2NCCNS(C)(=O)=O)ccc1F` [Example 17, N-(4-Fluoro-3-methylphenyl)-N′-hydroxy-4-({2-[(methylsulfonyl)amino]ethyl}amino)-1,2,5-oxadiazole-3-carboximidamide] belongs under 0.5 µM.
As for `NS(=O)(=O)NCCCNc1nonc1C(=NO)Nc1ccc(F)c(Br)c1` [Example 3, 4-({3-[(Aminosulfonyl)amino]propyl}amino)-N-(3-bromo-4-fluorophenyl)-N′-hydroxy-1,2,5-oxadiazole-3-carboximidamide], the half-inhibitory concentration (IC50) is under 0.1 µM.
Molecule `CS(=O)(=O)NCCNc1nonc1C(=NO)Nc1ccc(F)c(Cl)c1` [Example 6, N-(3-Chloro-4-fluorophenyl)-N′-hydroxy-4-({2-[(methylsulfonyl)amino]ethyl}amino)-1,2,5-oxadiazole-3-carboximidamide] gave a half-maximal inhibitory concentration (IC50) of under 0.2 µM.
On to `CS(=O)(=O)NCCNc1nonc1C(=NO)Nc1ccc(F)c(C#N)c1` [Example 19, N-(3-Cyano-4-fluorophenyl)-N′-hydroxy-4-({2-[(methylsulfonyl)amino]ethyl}amino)-1,2,5-oxadiazole-3-carboximidamide], for which the IC50 is under 0.5 µM.
`CS(=O)(=O)NCCCNc1nonc1C(=NO)Nc1ccc(F)c(C(F)(F)F)c1` [Example 12, N-[4-Fluoro-3-(trifluoromethyl)phenyl]-N′-hydroxy-4-({3-[(methylsulfonyl)amino]propyl}amino)-1,2,5-oxadiazole-3-carboximidamide] showed an IC50 of under 0.1 µM.

Still in this test, the particulars now being: Table 3; assay of Example A; 95 nM IDO, 2 mM D-Trp, pH 6.5, room temperature.
For `NS(=O)(=O)NCCNc1nonc1C(=NO)NCc1cc(Br)co1` [Example 20, 4-({2-[(Aminosulfonyl)amino]ethyl}amino)-N-[(4-bromo-2-furyl)methyl]-N′-hydroxy-1,2,5-oxadiazole-3-carboximidamide], the IC50 was under 0.5 µM.
Still for that read-out and setting: to `NS(=O)(=O)NCCNc1nonc1C(=NO)NCc1cc(Cl)co1` [Example 21, 4-({2-[(Aminosulfonyl)amino]ethyl}amino)-N-[(4-chloro-2-furyl)methyl]-N′-hydroxy-1,2,5-oxadiazole-3-carboximidamide] belongs under 0.75 µM.

The values above are taken from patent publication US20240173303A1, “1,2,5-Oxadiazoles As Inhibitors Of Indoleamine 2,3- Dioxygenase” (Incyte Corporation, priority 2008, published 2024).
